Experimental data published in patent US9233989B2, “Sila analogs of oxazolidinone derivatives and synthesis thereof” (Council of Scientific & Industrial Research, priority 2011, dated 2016).
≈ marks a conversion by molar mass, not a printed value.

Tests used:
[1] = tested on: MRSA 0-2657; test: MIC by microbroth dilution method; assay type: cell-based, S. aureus
[2] = tested on: E.coli 7632; test: MIC by microbroth dilution method; assay type: cell-based
[3] = tested on: E.faecium 06076 VRE; test: MIC by microbroth dilution method; assay type: cell-based
[4] = tested on: E.faecium ATCC 19434; test: MIC by microbroth dilution method; assay type: cell-based
[5] = tested on: E.faecium ATCC 49224; test: MIC by microbroth dilution method; assay type: cell-based
[6] = tested on: S.aureus ATCC 49775 PVL + ve; assay type: cell-based
[7] = tested on: E.faecalis ATCC 51299(VRE&HLAR); test: MIC by microbroth dilution method; assay type: cell-based
[8] = tested on: S.aureus2 (PVL + ve); assay type: cell-based, S. aureus
[9] = tested on: S.epidermis St 358; test: MIC by microbroth dilution method; assay type: cell-based, S. epidermidis
[10] = tested on: MRSA DB 00026; test: MIC by microbroth dilution method; assay type: cell-based, S. aureus
[11] = tested on: S.epidermidis ATCC 12228; test: MIC by microbroth dilution method; assay type: cell-based
[12] = tested on: E.faecium 134 VRE; test: MIC by microbroth dilution method; assay type: cell-based
[13] = tested on: MRSE ATCC 35983; test: MIC by microbroth dilution method; assay type: cell-based, S. epidermidis
[14] = tested on: S.aureus ATCC Newman 25904; test: MIC by microbroth dilution method; assay type: cell-based
[15] = tested on: S.aureus ATCC 29213; test: MIC by microbroth dilution method; assay type: cell-based
[16] = tested on: E.faecium ATCC 3567; test: MIC by microbroth dilution method; assay type: cell-based
[17] = tested on: S.aureus DB00026; test: MIC by microbroth dilution method; assay type: cell-based
[18] = tested on: S.aureus 13709 LNZ mutant; assay type: cell-based
[19] = tested on: E.faecalis ATCC 19433; test: MIC by microbroth dilution method; assay type: cell-based
[20] = tested on: MRSA 252 BAA 1720; test: MIC by microbroth dilution method; assay type: cell-based, S. aureus
[21] = tested on: S.aureus ATCC 700699 Mu50; test: MIC by microbroth dilution method; assay type: cell-based
[22] = tested on: S.aureus ATCC 13709 Smith; test: MIC by microbroth dilution method; assay type: cell-based
[23] = tested on: MRSA ATCC 43300; test: MIC by microbroth dilution method; assay type: cell-based, S. aureus
[24] = tested on: MRSA ATCC BAA 39; test: MIC by microbroth dilution method; assay type: cell-based, S. aureus
[25] = tested on: MRSA 562; test: MIC by microbroth dilution method; assay type: cell-based, S. aureus
[26] = tested on: E.faecalis SP 346 VRE; test: MIC by microbroth dilution method; assay type: cell-based
[27] = tested on: Mycobacterium tuberculosis H37Rv; test: Anti-TB activity, colorimetric resazurin microtiter assay; assay type: cell-based
[28] = tested on: S.epidermidis ATCC 14990; test: MIC by microbroth dilution method; assay type: cell-based
[29] = tested on: MRSE ATCC 35984; test: MIC by microbroth dilution method; assay type: cell-based, S. epidermidis
[30] = tested on: E.faecalis ATCC 29212; test: MIC by microbroth dilution method; assay type: cell-based
[31] = tested on: E.faecium 6A VRE; test: MIC by microbroth dilution method; assay type: cell-based
[32] = tested on: E.faecium ATCC 35667; test: MIC by microbroth dilution method; assay type: cell-based

| SMILES | MIC [1] | MIC [2] | MIC [3] | MIC [4] | MIC [6] | MIC [7] | MIC [9] | MIC [10] | MIC [11] | MIC [12] | MIC [13] | MIC [15] | MIC [16] | MIC [18] | MIC [19] | MIC [21] | MIC [22] | MIC [24] | MIC [25] | MIC [26] | other results |
| --- | --- | --- | --- | --- | --- | --- | --- | --- | --- | --- | --- | --- | --- | --- | --- | --- | --- | --- | --- | --- | --- |
| CC(=O)NCC1CN(c2ccc(N3CC[Si](C)(C)CC3)c(F)c2)C(=O)O1 (stereo not shown) [NDS-10026, N-((3-(4-(4,4-dimethyl-1,4-azasilinan-1-yl)-3-fluorophenyl)-2-oxooxazolidin-5-yl)methy)acetamide] | 16 µg/mL (≈ 42.2 µM) | > 32 µg/mL | > 16 µg/mL | > 16 µg/mL | > 16 µg/mL | 16 µg/mL (≈ 42.2 µM) | > 16 µg/mL | > 16 µg/mL | 16 µg/mL (≈ 42.2 µM) | 16 µg/mL (≈ 42.2 µM) | 16 µg/mL (≈ 42.2 µM) | 16 µg/mL (≈ 42.2 µM) | > 16 µg/mL | > 16 µg/mL | > 16 µg/mL | 16 µg/mL (≈ 42.2 µM) | > 16 µg/mL | 16 µg/mL (≈ 42.2 µM) | 16 µg/mL (≈ 42.2 µM) | > 16 µg/mL | MIC [5]: 8 µg/mL (≈ 21.1 µM); MIC [8]: 32 µg/mL (≈ 84.3 µM); MIC [14]: 32 µg/mL (≈ 84.3 µM); MIC [17]: 32 µg/mL (≈ 84.3 µM); MIC [20]: 32 µg/mL (≈ 84.3 µM); MIC [23]: 32 µg/mL (≈ 84.3 µM); MIC, Minimum Inhibitory Concentration (90%) ([27]; inhibition of Mycobacterium tuberculosis H37Rv growth, 7H9-OADC media, 37° C., visual readout): 50 µg/mL (≈ 132 µM); MIC [28]: 16 µg/mL (≈ 42.2 µM); MIC [29]: 16 µg/mL (≈ 42.2 µM); MIC [30]: > 16 µg/mL; MIC [31]: 16 µg/mL (≈ 42.2 µM); MIC [32]: 8 µg/mL (≈ 21.1 µM) |
| CC(=O)NC[C@H]1CN(c2cc(F)c(N3CC[Si](C)(C)CC3)c(F)c2)C(=O)O1 [NDS-10028, (S)—N-((3-(4-(4,4-dimethyl-1,4-azasilinan-1-yl)-3,5-difluorophenyl)-2-oxooxazolidin-5-yl)methyl)acetamide] | 8 µg/mL (≈ 20.1 µM) | > 32 µg/mL | 8 µg/mL (≈ 20.1 µM) | 8 µg/mL (≈ 20.1 µM) | 16 µg/mL (≈ 40.3 µM) | 8 µg/mL (≈ 20.1 µM) | 8 µg/mL (≈ 20.1 µM) | 8 µg/mL (≈ 20.1 µM) | 4 µg/mL (≈ 10.1 µM) | 8 µg/mL (≈ 20.1 µM) | 4 µg/mL (≈ 10.1 µM) | > 16 µg/mL | 16 µg/mL (≈ 40.3 µM) | > 16 µg/mL | 16 µg/mL (≈ 40.3 µM) | 8 µg/mL (≈ 20.1 µM) | 8 µg/mL (≈ 20.1 µM) | 8 µg/mL (≈ 20.1 µM) | 8 µg/mL (≈ 20.1 µM) | 8 µg/mL (≈ 20.1 µM) | MIC [5]: 8 µg/mL (≈ 20.1 µM); MIC [8]: > 32 µg/mL; MIC [14]: > 32 µg/mL; MIC [17]: > 32 µg/mL; MIC [20]: > 32 µg/mL; MIC [23]: > 32 µg/mL; MIC ([27]; Mycobacterium tuberculosis, H37RV, read-out: MIC, Minimum Inhibitory Concentration (90%)): > 50 µg/mL; MIC [28]: 4 µg/mL (≈ 10.1 µM); MIC [29]: 8 µg/mL (≈ 20.1 µM); MIC [30]: 8 µg/mL (≈ 20.1 µM); MIC [31]: 4 µg/mL (≈ 10.1 µM); MIC [32]: 8 µg/mL (≈ 20.1 µM) |
| CC(C)(C)OC(=O)NC[C@H]1CN(c2cc(F)c(N3CC[Si](C)(C)CC3)c(F)c2)C(=O)O1 [NDS-10031, (S)-tert-butyl((3-(4-(4,4-dimethyl-1,4-azasilinan-1-yl)-3,5-difluorophenyl)-2-oxooxazolidin-5-yl)methyl)carbamate] | > 16 µg/mL | > 32 µg/mL | > 16 µg/mL | > 16 µg/mL | > 16 µg/mL | > 16 µg/mL | > 16 µg/mL | > 16 µg/mL | > 16 µg/mL | > 16 µg/mL | > 16 µg/mL | > 16 µg/mL | > 16 µg/mL | > 16 µg/mL | > 16 µg/mL | > 16 µg/mL | > 16 µg/mL | > 16 µg/mL | > 16 µg/mL | > 16 µg/mL | MIC [28]: > 16 µg/mL; MIC [29]: > 16 µg/mL; MIC [30]: > 16 µg/mL; MIC [31]: > 16 µg/mL |
